The source of these data is patent publication US20180172683A1, “METHODS FOR ANALYZING THE INTERACTION BETWEEN A TARGET PROTEIN AND A LIGAND” (UNIVERSITY OF SOUTHERN CALIFORNIA, priority 2015, published 2018).

For assay [1], the target named is T1, Bcl-xL (Homo sapiens, UniProt Q07817).
T1 construct: The gene for the first 209 amino acids of Bcl-xL; made in house; host or cells: E. coli BL21(DE3), pET24a vector
In words: Radiolabeled off-rate assay on immobilized Bcl-xL. The format is binding. From the text: Radiolabeled Off-Rate Assay. The DNA sequences coding for the peptides were ordered from Integrated DNA Technologies (IDT). Each DNA construct contained a T7 RNA Polymerase promoter, and a 5′ deletion mutant of the Tobacco Mosaic Virus (ΔTMV). The C-terminal portion of the peptides were elongated with a flexible serine-glycine linker (six amino acids long) and an HA tag. After gel purification using urea-PAGE, the DNA sequences were PCR amplified using Taq polymerase and in vitro transcribed into mRNA using T7 RNA polymerase. After transcription, the mRNA was urea-PAGE purified and resuspended in deionized water to a final concentration of 30 μM.
The samples were in vitro translated at 30° C. for 1 hour in the translation solution—150 mM KOAc, 750 μM MgCl2, 2 μM mRNA, 1× translation mix (20 mM Hepes-KOH pH 7.6, 100 mM creatine phosphate, 2 mM DTT, and 312.5 μM of each amino acid excluding methionine), ^35S-labeled methionine (Perkin Elmer; 20 μCi for each 25 μL of translation), and 60% (v/v) rabbit reticulocyte lysate. Radiolabeled peptides were purified using magnetic HA beads (Life Technologies) and eluted with 100 μL, 50 mM NaOH, then immediately neutralized with 20 μL of 1 M Tris-HCl, pH 8.0.
The radiolabeled peptides were allowed to bind to 30 pmol immobilized Bcl-xL for 1 hour in sample buffer (1×PBS, 1% (w/v) BSA, 0.1% (v/v) Tween 20, 10 μM biotin). The beads were magnetically separated, and washed 5× with sample buffer. The beads were resuspended in 1 mL of sample buffer containing 3 μM non-biotinylated Bcl-xL (˜100× molar excess relative to immobilized biotinylated Bcl-xL). At various time points, 100 μL of slurry was removed and the beads were magnetically separated and washed. The percent remaining at each time point was determined by dividing the counts per minute (cpm) on beads by total cpm (beads+washes). The peptide off-rate was determined by an exponential fit of the Percent counts on beads vs. Time (s).
The peptide ligands were made using a C-terminal HA tag, and affinity purified.

Assay [2] concerns the target T1, Bcl-xL. Briefly: Equilibrium immunoassays (ELISA and AMMP data combined), Kd of ligands for Bcl-xL. The format is binding. As for the experimental part: Sample Preparation. A set of serially diluted Bcl-xL standards, at 2× the desired concentration, were made in sample buffer. For each ligand to be tested (such as peptide ligands), a set of dilutions at 2× the desired concentration was also prepared. The Bcl-xL samples were either mixed 1:1 with sample buffer (standards) or ligands (samples), and allowed to incubate at room temperature for 6 days. After the incubation, the standards and samples were analyzed using ELISA or the ViBE BioAnalyzer (FIG. 1).
ELISA Assays. ELISA plates were incubated overnight at 4° C. with 1.5 nmol of streptavidin (for D1 or Bcl-xL capture ligands) or 54H6 mAb in 1×PBS. Plates were washed 3× with wash buffer (1×PBS+0.1% (v/v) Tween-20) and blocked with 1×PBS+5% (w/v) BSA for two hours. For the D1 or Bcl-xL capture ligands, 100 μL of a 30 nM solution of the reagents was added to wells and incubated for 1 hour. This step was skipped for the 54H6 mAb capture ligand (already immobilized on the plate). After the capture ligand incubation, 100 μL of sample or standards were added in each well, and incubated for 1 hour at room temperature. Plates were washed, incubated with HRP-conjugated probe antibody (such as anti-HIS tag antibody) in sample buffer for 1 hour, washed, and incubated with TMB substrate (Thermo Scientific). Reactions were stopped after approximately 10 minutes with 2 M sulfuric acid, and the absorbance at 450 nm was measured via a plate reader (Molecular Devices). The ligand of interest, capture ligand, target protein, and probe ligand used in example ELISA assays performed are highlighted in the table below.
AMMP Assays. For the AMMP assays, 90 μL of each sample or standards was incubated with 30 μL of magnetic beads (12 μg of beads/mL) and fluorescein-labeled antibody (8 nM) in sample buffer for 1 hour. The experiment's run buffer was 1×PBS+1% (v/v) Tween-20+1% (v/v) heat-treated FBS (Invitrogen; FBS was heat treated for 15 minutes at 65° C. and filtered). BioScale Universal Detection Cartridges were used in performing all of the assays. The device was used per the manufacturer's instructions. The ligand of interest, capture ligand, target protein, and probe ligand used in example AMMP assays performed are highlighted in the table below.
Monovalent and Divalent Analysis. The data for both sets of target concentrations were simultaneously fit for Kd (in the Kd only fit) or Kd and Mo. The data was fitted to the equilibrium model using the lowest absolute deviation method, by varying either only Kd or both Kd and [L]0 simultaneously. The monovalent assay fitting was done by Excel Solver (GRG Non-Lin method) using a set of five initial values. The set of values which provided the lowest error after the fitting were chosen as the final values. For the divalent assays, the fitting was performed by MATLAB's fminsearch function and a set of 10 initial values for Kd1, Kd2, and [L]0. […] For the divalent reverse assay, an extra parameter, Cf, was also determined by fitting (FIG. 7 Reverse Assay).
Enzymatic Kd Calculation Assay. The Kd values of ligands of interest were determined using a protocol modified from Friguet et al., Journal of immunological methods, 77, 305-319 (1985). The samples were prepared and analyzed by ELISA assay in a similar process as described above. The OD450 for the standards and their concentration values were fit to a four parameter logistic curve (standard curve). The concentration of the free Bcl-xL in solution (responsible for the signal) for each sample was calculated using the standard curve, and converted into percent of Bcl-xL bound by ligand in solution.
A general note: An ELISA detects its analyte on a solid surface through an enzyme-linked reagent.

A further assay deals with streptavidin (Streptomyces avidinii, UniProt P22629). The settings on record: literature reference value, Piran et al. 1990; cited from earlier work.
For assay [3], the target named is T1, Bcl-xL. Briefly: High-throughput sequencing kinetic (HTSK) on- and off-rates of mRNA-peptide fusions. The format is binding. The protocol: Preparing the pools of fusion ligands. The DNAs for the final enriched pools from the extension and the doped selection against Bcl-xL were generated. The DNA pools were PCR amplified using Taq polymerase and in vitro transcribed into mRNA using T7 RNA polymerase (Liu et al., Methods Enzymol. 318, 268-293 (2000)). After transcription, the mRNA was urea-PAGE purified and resuspended in deionized water to a final concentration of 30 μM. The mRNA was then ligated to fluorescein-F30P (phosphate-dA21-[dT-fluor]-[C9]3-dAdCdCP; where [dT-fluor] is fluorescein dT (Glen Research), [C9] is spacer 9 (Glen Research), and P is puromycin (Glen Research); synthesized at the Keck Oligo Facility at Yale) using T4 DNA ligase (Takahashi et al., Methods Mol. Biol. 535, 293-314 (2009)). The ligation was performed using a splint complementary to the 3′ end of the RNA and the 5′ end of the DNA-linker. The ligated mRNA was urea-PAGE purified and resuspended in deionized water to final concentration of 30 μM. The samples were in vitro translated in the translation solution-150 mM KOAc, 750 μM MgCl2, 2 μM mRNA, in 1× translation mix (20 mM Hepes-KOH pH 7.6, 100 mM creatine phosphate, 2 mM DTT, and 312.5 μM of each amino acid) and 60% (v/v) rabbit reticulocyte lysate. To prepare radiolabeled peptides or proteins, non-labeled methionine was substituted with ^35S-labeled methionine (Perkin Elmer; 20 μCi for each 25 μL of translation). The translation reactions were incubated at 30° C. for one hour. To form mRNA-protein fusions, KCl and MgCl2 were added to the reaction to final concentrations of 250 mM and 30 mM respectively after translation, and the samples were frozen at −20° C.
To purify the fusion molecules, 100 μL of dT cellulose (25% (v/v) slurry, GE Healthcare) in isolation buffer (100 mM Tris-HCl pH 8.0, 1 M NaCl, 0.2% (v/v) Triton X-100) was added and incubated for 1 hour. The beads were washed five times with 700 μL of isolation buffer, and the fusions were eluted with 3×80 μL of 65° C. water and desalted through Centrisep columns (Princeton Separations). The desalted fusions were adjusted to 1×RT buffer (50 mM Tris-HCl pH 8.3, 75 mM KCl, 3 mM MgCl2, […], […],) and the sample was heated to 65° C. for 5 minutes and cooled on ice to anneal the 3′ primer. After cooling, […] of Superscript II enzyme was added and the reaction incubated at 42° C. for one hour. […]
On- and off-rate experiments. […] The radiolabeled samples were washed 3×, and the beads were counted via a scintillation counter.
To obtain the HTSK off-rates, after the kinetic on-rate experiment, the remaining beads were washed 5× with selection buffer. […] The radiolabeled samples were washed and counted via a scintillation counter. […]

Peptide text beside a SMILES is read from it. * marks the point of attachment. Biotin = O=C1N[C@H]2[C@H](CS[C@H]2CCCCC(=O)*)N1

T1 sequence (Q07817 1-209 limits assumed): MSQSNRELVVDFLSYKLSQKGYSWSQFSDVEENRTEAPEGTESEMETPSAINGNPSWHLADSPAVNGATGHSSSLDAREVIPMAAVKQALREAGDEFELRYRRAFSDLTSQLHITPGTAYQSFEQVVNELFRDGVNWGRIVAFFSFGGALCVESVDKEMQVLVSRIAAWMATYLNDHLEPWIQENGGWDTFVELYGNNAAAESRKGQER
Chain of streptavidin (P22629 25-183, species assumed): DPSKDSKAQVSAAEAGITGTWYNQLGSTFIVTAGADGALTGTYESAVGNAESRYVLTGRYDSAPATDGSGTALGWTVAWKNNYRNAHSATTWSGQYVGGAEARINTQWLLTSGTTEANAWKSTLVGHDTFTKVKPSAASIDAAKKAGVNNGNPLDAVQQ

Take `CC[C@H](C)[C@H](NC(=O)[C@@H](NC(=O)[C@@H](NC(=O)[C@@H](NC(=O)[C@H](CCC(=O)O)NC(=O)[C@@H](NC(=O)[C@@H](N)CCSC)[C@@H](C)CC)[C@@H](C)O)[C@@H](C)CC)[C@@H](C)O)C(=O)N[C@@H](Cc1ccc(O)cc1)C(=O)N[C@@H](CCCCN)C(=O)N[C@@H](Cc1ccc(O)cc1)C(=O)N[C@@H](CCCCN)C(=O)N[C@@H](CCCCN)C(=O)N[C@@H](C)C(=O)N[C@@H](C)C(=O)N[C@@H](CC(=O)O)C(=O)N[C@@H](Cc1c[nH]cn1)C(=O)N[C@@H](Cc1ccccc1)C(=O)N[C@@H](CO)C(=O)N[C@@H](CCSC)C(=O)N[C@@H](CO)C(=O)N[C@@H](CCSC)C(=O)NCC(=O)N[C@@H](CO)C(=O)N[C@@H](CCCCNC(=O)CCCC[C@@H]1SC[C@@H]2NC(=O)N[C@@H]21)C(N)=O` [E2] (H-MIETITIYKYKKAADHFSMSMGSK(Biotin)-NH2): the koff (usually the rate constant with which the complex falls apart) on Bcl-xL [1] (radiolabeled peptide-mRNA fusions bound to immobilized Bcl-xL, read-out: koff) stood at 1.6e-05 s⁻¹. Further, the kon (usually the second-order rate constant of association) on Bcl-xL [2] turned out to be 53000 M⁻¹ s⁻¹. For the same compound, the Kd (as a rule, a measure of binding affinity in units of concentration) on Bcl-xL [2] (Kd, equilibrium ELISA/AMMP assays (Table 1 values)) came out at 0.3 nM. The “Ratio of Fit [L]0 to Known [L]0” value at Bcl-xL [2] (simultaneous fit of Kd and [L]0, mean ± standard error) was 96% ± 40%.

As to `O=C(O)CCCC[C@@H]1SC[C@@H]2NC(=O)N[C@@H]21` [biotin], on streptavidin, the “slowest reported off-rate of biotin and streptavidin” value is 2.4×10^−6.

MIDTNVILNYKKAADHFSITMGSK [D79] gave a Peptide koff at Bcl-xL [1] (in vitro translated radiolabeled peptides with C-terminal HA tag) of 5.9e-07 s⁻¹. The koff value on Bcl-xL [1] (radiolabeled peptide, unit not given) is reported as 5.9×10^−7. This compound gave a dissociation constant Kd at Bcl-xL [3] (from HTSK on- and off-rates) of 0.0024 nM. On Bcl-xL [3] (mRNA-peptide fusions, next-generation sequencing), this compound returned an HTSK koff of 3.3e-07 s⁻¹.
